Columns and labels:
[1] = biological target: T1, EGFR L858R (BaF3-L858R cells) (Homo sapiens, UniProt P00533, L858R); test: EGFR degradation in BaF3-L858R cells (HTRF assay); format: cell-based; conditions: 16 h treatment; for DC50: IC50(DC50) of EGFR degradation; for Dmax: maximum percentage of inhibition (degradation)
T1 construct: host or cells: BaF3
Outline: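 BaF3-L858R cells were exposed for 16 h at 37° C to 8 doses, 5-fold dilutions starting at 10 uM final, in 0.1% DMSO medium. Lysates were incubated overnight with HTRF antibodies and read at 665/620 nm. Degradation was taken relative to DMSO control, and DC50 and Dmax came from a four-parameter fit.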

[2] = biological target: T2, EGFR-L858R/C797S (H1975-clone #8 cells) (Homo sapiens, UniProt P00533, C797S/L858R); test: EGFR degradation in H1975-clone#8 (L858R/C797S) cells (HTRF assay); format: cell-based; conditions: 16 h treatment; for DC50: IC50(DC50) of EGFR degradation; for Dmax: maximum percentage of inhibition (degradation)
T2 construct: expressed in transfected cells; host or cells: H1975 (lentiviral transduction, endogenous EGFR knocked out, single clone #8)
T2 sequence (P00533 25-1210 C797S/L858R): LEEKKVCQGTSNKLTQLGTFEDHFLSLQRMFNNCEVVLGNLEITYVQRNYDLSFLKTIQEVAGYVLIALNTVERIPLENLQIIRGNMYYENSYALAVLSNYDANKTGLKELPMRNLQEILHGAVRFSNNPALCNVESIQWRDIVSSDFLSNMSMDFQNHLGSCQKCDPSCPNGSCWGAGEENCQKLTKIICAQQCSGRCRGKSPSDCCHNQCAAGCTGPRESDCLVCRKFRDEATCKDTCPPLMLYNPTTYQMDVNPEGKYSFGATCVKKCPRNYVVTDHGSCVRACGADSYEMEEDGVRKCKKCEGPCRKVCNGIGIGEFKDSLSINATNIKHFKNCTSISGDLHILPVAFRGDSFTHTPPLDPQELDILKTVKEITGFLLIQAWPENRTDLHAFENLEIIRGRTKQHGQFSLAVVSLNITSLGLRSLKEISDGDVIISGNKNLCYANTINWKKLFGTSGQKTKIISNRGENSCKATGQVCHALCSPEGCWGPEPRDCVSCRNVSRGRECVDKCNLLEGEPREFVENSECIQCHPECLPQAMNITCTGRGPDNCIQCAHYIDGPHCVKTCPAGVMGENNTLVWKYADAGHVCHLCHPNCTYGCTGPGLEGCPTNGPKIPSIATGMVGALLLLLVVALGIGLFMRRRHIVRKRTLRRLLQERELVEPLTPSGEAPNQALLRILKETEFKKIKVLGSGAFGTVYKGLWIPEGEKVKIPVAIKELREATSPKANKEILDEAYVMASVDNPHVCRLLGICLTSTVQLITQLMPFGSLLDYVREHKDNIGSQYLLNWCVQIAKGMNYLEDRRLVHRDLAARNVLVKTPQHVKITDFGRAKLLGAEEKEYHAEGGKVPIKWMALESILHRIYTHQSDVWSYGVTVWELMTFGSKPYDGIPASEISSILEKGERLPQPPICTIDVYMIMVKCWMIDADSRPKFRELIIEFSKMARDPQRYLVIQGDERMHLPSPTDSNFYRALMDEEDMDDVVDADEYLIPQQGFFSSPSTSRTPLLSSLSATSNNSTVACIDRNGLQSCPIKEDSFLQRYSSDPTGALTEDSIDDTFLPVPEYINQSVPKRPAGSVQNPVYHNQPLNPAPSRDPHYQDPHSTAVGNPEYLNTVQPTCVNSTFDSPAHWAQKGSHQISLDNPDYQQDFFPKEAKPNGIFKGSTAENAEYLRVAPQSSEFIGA
Outline: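 H1975 cells engineered to carry only homozygous exogenous EGFR L858R/C797S (clone #8) treated 16 h at 37 °C with compound, 8 doses from 10 uM in 5-fold steps, 0.1% DMSO. Remaining EGFR in lysates measured by HTRF; degradation percentage relative to DMSO control, DC50 and Dmax from 4-parameter fit.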

T1 sequence (P00533 25-1210 L858R): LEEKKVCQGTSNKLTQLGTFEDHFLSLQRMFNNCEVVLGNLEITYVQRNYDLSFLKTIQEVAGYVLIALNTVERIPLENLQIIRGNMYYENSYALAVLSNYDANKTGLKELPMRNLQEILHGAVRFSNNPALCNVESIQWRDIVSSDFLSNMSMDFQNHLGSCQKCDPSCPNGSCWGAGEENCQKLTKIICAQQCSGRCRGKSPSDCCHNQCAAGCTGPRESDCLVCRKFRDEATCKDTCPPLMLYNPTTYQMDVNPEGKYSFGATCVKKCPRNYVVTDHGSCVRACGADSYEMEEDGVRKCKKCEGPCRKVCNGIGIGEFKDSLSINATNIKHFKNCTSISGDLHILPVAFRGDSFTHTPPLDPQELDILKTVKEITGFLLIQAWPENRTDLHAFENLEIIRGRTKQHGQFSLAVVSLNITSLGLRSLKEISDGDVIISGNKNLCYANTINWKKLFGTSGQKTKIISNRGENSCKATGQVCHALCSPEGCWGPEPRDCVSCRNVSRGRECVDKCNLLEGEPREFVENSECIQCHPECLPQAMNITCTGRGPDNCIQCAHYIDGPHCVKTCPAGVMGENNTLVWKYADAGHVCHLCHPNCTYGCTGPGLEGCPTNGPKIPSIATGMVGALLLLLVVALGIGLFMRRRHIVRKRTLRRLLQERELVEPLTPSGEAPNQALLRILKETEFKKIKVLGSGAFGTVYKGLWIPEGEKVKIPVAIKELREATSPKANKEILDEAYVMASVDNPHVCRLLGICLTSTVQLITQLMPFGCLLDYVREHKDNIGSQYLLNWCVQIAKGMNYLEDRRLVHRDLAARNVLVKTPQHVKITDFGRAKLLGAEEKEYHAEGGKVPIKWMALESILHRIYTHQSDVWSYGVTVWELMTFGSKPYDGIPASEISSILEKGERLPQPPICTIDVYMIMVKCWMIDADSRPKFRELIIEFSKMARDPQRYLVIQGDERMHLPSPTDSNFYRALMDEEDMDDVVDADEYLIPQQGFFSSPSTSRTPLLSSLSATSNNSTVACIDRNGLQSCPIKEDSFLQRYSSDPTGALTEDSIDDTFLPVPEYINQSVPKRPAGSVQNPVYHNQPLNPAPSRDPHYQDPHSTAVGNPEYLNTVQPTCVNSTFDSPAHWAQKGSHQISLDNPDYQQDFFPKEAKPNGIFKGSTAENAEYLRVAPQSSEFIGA

Row | DC50 [1] | Dmax [1] | DC50 [2] | Dmax [2] | SMILES
1 | 3.35 nM | 91.9% | 2.11 nM | 77.7% | Cc1cc2cc(n1)-c1cnn(C)c1OCC[C@]1(C)C[C@H]1CN1/C(=N/C2=O)Nc2ccc(N3CCN(C4CCN(c5cc(F)c(C6CCC(=O)NC6=O)nc5C)CC4)CC3)cc21 (stereo partly drawn) [Example 54, 3-(3-fluoro-6-methyl-5-(4-(4-((7^1R,7^2S,E)-1^1,2^6,7^2-trimethyl-3-oxo-5^2,5^3-dihydro-1^1H,5^1H-10-oxa-4-aza-5 (2,1)-benzo[d]imidazola-2 (2,4)-pyridina-1 (4,5)-pyrazola-7 (1,2)-cyclopropanacyclodecaphane-5^6-yl)piperazin-1-yl)piperidin-1-yl)pyridin-2-yl)piperidine-2,6-dione]
2 | 3.2 nM | 91.3% | 4.21 nM | 61.7% | Cc1cc2cc(n1)-c1cnn(C)c1OCC[C@]1(C)C[C@H]1CN1/C(=N/C2=O)Nc2ccc(N3CCN([C@@H]4CCN(c5cccc6c5C(C)(C)C(=O)N6C5CCC(=O)NC5=O)C[C@@H]4F)CC3)cc21 (stereo partly drawn) [Example 57, 3-(4-((3S,4R)-3-fluoro-4-(4-((7^1R,7^2S,E)-1^1,2^6,7^2-trimethyl-3-oxo-5^2,5^3-dihydro-1^1H,5^1H-10-oxa-4-aza-5 (2,1)-benzo[d]imidazola-2 (2,4)-pyridina-1 (4,5)-pyrazola-7 (1,2)-cyclopropanacyclodecaphane-5^6-yl)piperazin-1-yl)piperidin-1-yl)-3,3-dimethyl-2-oxoindolin-1-yl)piperidine-2,6-dione]
3 | 3.54 nM | 95.5% | 0.635 nM | 72.7% | Cc1cc2cc(n1)-c1cnn(C)c1OCC[C@]1(C)C[C@H]1CN1/C(=N/C2=O)Nc2ccc(N3CCN([C@@H]4CCN(c5cnc(C6CCC(=O)NC6=O)cc5C)C[C@@H]4F)CC3)cc21 (stereo partly drawn) [Example 59, 3-(5-((3S,4R)-3-fluoro-4-(4-((7^1R,7^2S,E)-1^1,2^6,7^2-trimethyl-3-oxo-5^2,5^3-dihydro-1^1H,5^1H-10-oxa-4-aza-5 (2,1)-benzo[d]imidazola-2 (2,4)-pyridina-1 (4,5)-pyrazola-7 (1,2)-cyclopropanacyclodecaphane-5^6-yl)piperazin-1-yl)piperidin-1-yl)-4-methylpyridin-2-yl)piperidine-2,6-dione]
4 | 0.99 nM | 91.8% | 1.29 nM | 80.8% | Cc1cc2cc(n1)-c1cnn(C)c1OCC[C@]1(C)C[C@H]1CN1/C(=N/C2=O)Nc2ccc(N3CCN([C@H]4CCN(c5cc(F)c(C6CCC(=O)NC6=O)nc5C)C[C@H]4F)CC3)cc21 (stereo partly drawn) [Example 61, 3-(3-fluoro-5-((3R,4S)-3-fluoro-4-(4-((7^1R,7^2S,E)-1^1,2^6,7^2-trimethyl-3-oxo-5^2,5^3-dihydro-1^1H,5^1H-10-oxa-4-aza-5 (2,1)-benzo[d]imidazola-2 (2,4)-pyridina-1 (4,5)-pyrazola-7 (1,2)-cyclopropanacyclodecaphane-56-yl)piperazin-1-yl)piperidin-1-yl)-6-methylpyridin-2-yl)piperidine-2,6-dione]
5 | 0.69 nM | 93.8% | 0.612 nM | 76.8% | Cc1cc2cc(n1)-c1cnn(C)c1OCC[C@]1(C)C[C@H]1CN1/C(=N/C2=O)Nc2ccc(N3CCN([C@H]4CCN(c5ccc(C6CCC(=O)NC6=O)nc5C)C[C@H]4F)CC3)cc21 (stereo partly drawn) [Example 62, 3-(5-((3R,4S)-3-fluoro-4-(4-((7^1R,7^2S,E)-1^1,2^6,7^2-trimethyl-3-oxo-5^2,5^3-dihydro-1^1H,5^1H-10-oxa-4-aza-5 (2,1)-benzo[d]imidazola-2 (2,4)-pyridina-1 (4,5)-pyrazola-7 (1,2)-cyclopropanacyclodecaphane-5^6-yl)piperazin-1-yl)piperidin-1-yl)-6-methylpyridin-2-yl)piperidine-2,6-dione]

Further lines, the compound ahead of its results:

Row | SMILES | DC50 [1] | Dmax [1] | DC50 [2] | Dmax [2]
6 | Cc1cc2cc(n1)-c1cnn(C)c1OCC[C@H]1C[C@@H]1CN1/C(=N/C2=O)Nc2ccc(N3CCN(C4CN(C5CCN(c6ccc(C7CCC(=O)NC7=O)nc6C)CC5)C4)C[C@@H]3C)cc21 (stereo partly drawn) [Example 36, 3-(5-(4-(3-((S)-4-((7^1S,7^2R,E)-1^1,2^6-dimethyl-3-oxo-5^2,5^3-dihydro-1^1H,5^1H-10-oxa-4-aza-5 (2,1)-benzo[d]imidazola-2 (2,4)-pyridina-1 (4,5)-pyrazola-7 (1,2)-cyclopropanacyclodecaphane-5^6-yl)-3-methylpiperazin-1-yl)azetidin-1-yl)piperidin-1-yl)-6-methylpyridin-2-yl)piperidine-2,6-dione] | 13.4 nM | 68.5% | 2.61 nM | 41.7%
7 | Cc1cc2cc(n1)-c1cnn(C)c1OCC[C@H]1C[C@@H]1CN1/C(=N/C2=O)Nc2ccc(N3CCN(C4CN(C5CCN(c6ccc(C7CCC(=O)NC7=O)nc6C)CC5)C4)C[C@H]3C)cc21 (stereo partly drawn) [Example 37, 3-(5-(4-(3-((R)-4-((7^1S,7^2R,E)-1^1,2^6-dimethyl-3-oxo-5^2,5^3-dihydro-1^1H,5^1H-10-oxa-4-aza-5 (2,1)-benzo[d]imidazola-2 (2,4)-pyridina-1 (4,5)-pyrazola-7 (1,2)-cyclopropanacyclodecaphane-5^6-yl)-3-methylpiperazin-1-yl)azetidin-1-yl)piperidin-1-yl)-6-methylpyridin-2-yl)piperidine-2,6-dione] | 7.92 nM | 64.5% | 8.34 nM | 55.9%
8 | Cc1cc2cc(n1)-c1cnn(C)c1OCC[C@]1(C)C[C@H]1CN1/C(=N/C2=O)Nc2ccc(N3CCN([C@@H]4CCN(c5cc(F)c(C6CCC(=O)NC6=O)nc5C)C[C@@H]4F)CC3)cc21 (stereo partly drawn) [Example 43, 3-(3-fluoro-5-((3S,4R)-3-fluoro-4-(4-((7^1R,7^2S,E)-1^1,2^6,7^2-trimethyl-3-oxo-5^2,5^3-dihydro-1^1H,5^1H-10-oxa-4-aza-5 (2,1)-benzo[d]imidazola-2 (2,4)-pyridina-1 (4,5)-pyrazola-7 (1,2)-cyclopropanacyclodecaphane-5^6-yl)piperazin-1-yl)piperidin-1-yl)-6-methylpyridin-2-yl)piperidine-2,6-dione] | 1.74 nM | 86.2% | 2.81 nM | 88.8%
9 | Cc1cc2cc(n1)-c1cnn(C)c1OCC[C@]1(C)C[C@H]1CN1/C(=N/C2=O)Nc2ccc(N3CCN([C@@H]4CCN(c5ccc(C6CCC(=O)NC6=O)nc5C)C[C@@H]4F)CC3)cc21 (stereo partly drawn) [Example 49, 3-(5-((3S,4R)-3-fluoro-4-(4-((7^1R,7^2S,E)-1^1,2^6,7^2-trimethyl-3-oxo-5^2,5^3-dihydro-1^1H,5^1H-10-oxa-4-aza-5 (2,1)-benzo[d]imidazola-2 (2,4)-pyridina-1 (4,5)-pyrazola-7 (1,2)-cyclopropanacyclodecaphane-5^6-yl)piperazin-1-yl)piperidin-1-yl)-6-methylpyridin-2-yl)piperidine-2,6-dione] | 0.418 nM | 86.7% | 0.942 nM | 86.9%

Reference: US20260077051A1, “COMPOUNDS FOR THE DEGRADATION OF EGFR KINASE” (BeOne Medicines I GmbH, priority 2023, published 2026)
